Test results published in BigSolDB 2.1.

Cc1ccc(S(C)(=O)=O)cc1
solubility (mole fraction)
Conditions | in DMF | in acetone | in acetonitrile | in ethanol | in ethyl acetate | in isopropanol | in methanol | in n-butanol | in n-propanol
278.15 K | 0.123 | 0.0999 | 0.084 | 0.00721 | 0.0611 | 0.00415 | 0.0111 | 0.00408 | 0.00596
283.15 K | 0.146 | 0.118 | 0.102 | 0.00993 | 0.0732 | 0.00579 | 0.0153 | 0.00599 | 0.00839
288.15 K | 0.177 | 0.144 | 0.13 | 0.0137 | 0.0872 | 0.008 | 0.0207 | 0.00869 | 0.012
293.15 K | 0.208 | 0.172 | 0.155 | 0.018 | 0.103 | 0.011 | 0.0282 | 0.0125 | 0.016
298.15 K | 0.244 | 0.199 | 0.183 | 0.0241 | 0.123 | 0.0149 | 0.0376 | 0.0178 | 0.022
303.15 K | 0.282 | 0.234 | 0.218 | 0.0321 | 0.144 | 0.0203 | 0.05 | 0.0252 | 0.03
308.15 K | 0.332 | 0.274 | 0.258 | 0.042 | 0.171 | 0.0275 | 0.0657 | 0.0353 | 0.04
313.15 K | 0.389 | 0.322 | 0.3 | 0.055 | 0.203 | 0.0367 | 0.0858 | 0.0492 | 0.052
318.15 K | 0.45 | 0.379 | 0.359 | 0.0712 | 0.236 | 0.0491 | 0.111 | 0.0681 | 0.069
